Reference: patent publication US6844466B2, “Alkyl urea retinoid agonists” (Syntex (U.S.A.) LLC, priority 2001, dated 2005)
Several values for one entry are separate records, joined by “and”; a condition that tells them apart may be missing. Identical values can stand only once.

Experiments:
[1] = Effect of RAR agonists on plasma triglyceride levels; assay type: in vivo, male, Wistar Han rats; details: rat, oral
Excerpt: Sixty male, Wistar Han rats (Charles Rivers Laboratories) were used in this experiment. The received weight of the rats varied between 200-250 gm. The compounds used in this study were formulated in Miglyol 812, Batch 000719, Product #6330 (Condea) with 0.01% BHA and 0.01% BHT. Three RAR agonists, illustrated below, were compared with regards to their effects on triglyceride levels. Compounds 39 and 40 are prior art compounds (see, Hashimoto, Yuichi; Kagechika, Hiroyuki; Kawachi, Emiko; Fukasawa, Hiroshi; Saito, Go; Shudo, Koichi. “Evaluation of differentiation-inducing activity of retinoids on human leukemia cell lines HL-60 and NB4” Biol. Pharm. Bull. (1996), 19(10), 1322-1328; and Takagi, Kanji; Suganuma, Masami; Kagechika, Hiroyuki; Shudo, Koichi; Ninomiya, Mitsuo; Muto, Yasutoshi; Fujiki, Hirota. “Inhibition of ornithine decarboxylase induction by retinobenzoic acids in relation to their binding affinities to cellular retinoid-binding proteins” J. Cancer Res. Clin. Oncol. (1988), 114(3), 221-4, while compound 27 is a compound prepared in Example 7, herein.
Animals were dosed with compounds 27, 39 and 40 or vehicle for two weeks (one 1.0 mL dose a day, total of 10 doses) by oral administration. Doses were 0.3 mg/kg, 1 mg/kg and 3 mg/kg. Animals were weighed twice a week for monitoring gross toxicity (% weight change and mucutaneous).
Animals were fasted for at least 4 hours before terminal blood collection. At the end of the experiment the animals were placed under deep anesthesia using pentobarbital ip (30-40 mg). Five to six ml of blood was collected via cardiac puncture for blood chemistry (Quality Clinical Lab, Mountain View, Calif.) and PK analysis (terminal). Animals were euthanized by exsanguination from the abdominal aorta or cervical dislocation. Plasma was collected and stored at −20
Quantitation of triglycerides contained in rat plasma may be performed using established procedures. […] Hydrogen peroxide may be quantitated […] in a Hitachi 911 Chemistry Analyzer. […]

[2] = test system: retinoic acid receptor (α, β and γ); test: Transactivation of retinoic acid receptors; assay type: cell-based; details: compared to prior art compounds 39 and 40
Excerpt: Transactivation, which is the ability of a retinoid to activate gene transcription when gene transcription is initiated by the binding of a ligand to the particular retinoic acid receptor being tested, may be determined by using methods described in the art (Apfel et al., Proc. Natl. Acad. Sci., 1992, 89, 7129; Bernard et al., Biochem. And Biophys. Res. Comm., 1992, 186, 977 which is herein incorporated by reference).

[3] = test system: rat model of elastase-induced emphysema; test: Alveolar repair in the rat model of elastase-induced emphysema; assay type: in vivo, male Sprague Dawley rats; details: oral once per day, lower dosage levels (0.01 or 0.001 mg/kg), p≦0.05, FIG. 1
Excerpt: Compounds of the invention may be evaluated for their effects on alveolar repair in the rat model of elastase-induced emphysema (Massaro et al., Nature, 1997, Vol. 3, No. 6: 675; Massaro et al., U.S. Pat. No. 5,998,486). Preferably, animals are divided into treatment groups of approximately eight. Lung inflammation and alveolar damage may be induced in male Sprague Dawley rats by a single instillation of about 2 U/gram body mass of pancreatic elastase (porcine derived, Calbiochem).
Animals may be treated with a compound of the invention formulated Miglyol at convenient oral dosage ranges (preferably, between about 10.0 mg/kg and 0.0001 mg/kg) and will be dosed orally once per day starting 21 days post injury. Control groups are challenged with elastase and 21 days later are treated with vehicle (Miglyol) for 14 days. Animals were sacrificed 24 hours after the last dose by exsanguination under deep anesthesia. Blood was collected at time of exsanguination for analysis.
The lungs are inflated with 10% neutral buffered formalin by intratracheal instillation at a constant rate (1 ml/gram body mass/min). […] The mean value/treatment group may be determined by summing the average area/rat for all eight rats/treatment groups and repair of elastase damage expressed as percentage of repair relative to the elastase+vehicle treated group from the following calculation: […]

Row | SMILES | melting point | selectivity of transactivation among RAR α, β and γ [2] | further results
1 | CCCCCCN(C(=O)Nc1ccc(C(=O)O)cc1)c1ccc2c(c1)C(C)(C)CCC2(C)C [Compound 13, 4-[3-hexyl-3-(5,5,8,8-tetramethyl-5,6,7,8-tetrahydro-naphthalen-2-yl)-ureido]-benzoic acid] | 176 to 177 °C |  | 
2 | CCCCCCCCN(C(=O)Nc1ccc(C(=O)O)cc1)c1ccc2c(c1)C(C)(C)CCC2(C)C [Compound 25, 4-[3-octyl-3-(5,5,8,8-tetramethyl-5,6,7,8-tetrahydro-naphthalen-2-yl)-ureido]-benzoic acid] | 166 to 167 °C and 165.8 to 167.2 °C |  | 
3 | CCCCCN(C(=O)Nc1ccc(C(=O)O)cc1)c1ccc2c(c1)C(C)(C)CCC2(C)C [Compound 27, 4-[3-pentyl-3-(5,5,8,8-tetramethyl-5,6,7,8-tetrahydro-naphthalen-2-yl)-ureido]-benzoic acid] |  | unexpectedly selective at activating transcription activity through the gamma receptor | triglyceride levels expressed as a percentage relative to vehicle control (100%) ([1]; two weeks (10 doses), at the higher dose, FIG. 2): < 100%; elevation of triglyceride levels relative to vehicle control (in words) ([1]; two weeks, 0.3, 1 and 3 mg/kg): did not significantly elevate triglycerides levels; alveolar repair [3]: significant
4 | CC1(C)CCC(C)(C)c2cc(NC(=O)Nc3ccc(C(=O)O)cc3)ccc21 [Compound 39, reference compound] |  | pan-agonists | 
5 | CN(C(=O)Nc1ccc(C(=O)O)cc1)c1ccc2c(c1)C(C)(C)CCC2(C)C [Compound 40, reference compound] |  | pan-agonists | dose dependence of triglyceride levels ([1]; two weeks, 0.3, 1 and 3 mg/kg): triglyceride levels increasing with increasing dosage
6 | CCCN(C(=O)Nc1ccc(C(=O)O)cc1)c1ccc2c(c1)C(C)(C)CCC2(C)C [Compound 55] | 175 to 186 °C | unexpectedly selective at activating transcription activity through the gamma receptor | 
7 | CCCCCN(C(=O)Nc1ccc(C(=O)O)cc1F)c1ccc2c(c1)C(C)(C)CCC2(C)C [Compound 57, 3-fluoro-4-[3-pentyl-3-(5,5,8,8-tetramethyl-5,6,7,8-tetrahydro-naphthalen-2-yl)-ureido]-benzoic acid] | 150.9 to 157.4 °C |  | 
